Data reported in patent US9901577B2, “Oxoquinazolinyl-butanamide derivatives” (MERCK PATENT GMBH, priority 2013, dated 2018).
Read-outs that look alike come from different tables or passages of the source.

Experiments:
TNKS1 = target: T1, TNKS1 (Homo sapiens, UniProt O95271); experiment: TNKS1 activity ELISA (autoparsylation assay); assay type: biochemical
T1 construct: GST-tagged Tnks-1 (1023-1327 aa, prepared in-house); made in house
Experimental: (§1) Description of the TNKS1 and TNKS2 ELISA Assay
(§2) Biochemical Activity Testing of TNKS 1 and 2: Activity ELISA (Autoparsylation Assay)
(§3) For analysis of autoparsylation activity of TNKS 1 and 2 an activity ELISA iss performed: In the first step GST tagged TNKS is captured on a Glutathione coated plate. Then the activity assay with biotinylated NAD is performed in the absence/presence of the compounds. During the enzymatic reaction GST tagged TNKS transfers biotinylated ADP-ribose to itself from biotinylated NAD as co-substrate. For the detection streptavidin-HRP conjugate is added that binds to the biotinylated TNKS and is thereby captured to the plates. The amount of biotinylated resp. autoparsylated TNKS is detected with a luminescence substrate for HRP. The level of the luminescence signal correlates directly with the amount of autoparsylated TNKS and therefore with activity of TNKS.
(§4) The activity ELISA is performed in 384 well Glutathione coated microtiter plates (Express capture Glutathione coated plate, Biocat, Heidelberg, Germany). The plates are pre-equilibrated with PBS. […] The plates are washed 3 times with PBS-Tween-20. The wells are blocked by incubation at room temperature for 20 minutes with 50 μl blocking buffer (PBS, 0.05% Tween-20, 0.5% BSA). Afterwards the plates are washed 3 times with PBS-Tween-20. […] The reaction is stopped by 3 times washing with PBS-Tween-20. For the detection 50 μl of 20 ng/μl Streptavidin, HRP conjugate (MoBiTec, Göttingen, Germany) in PBS/0.05% Tween-20/0.01% BSA are added and the plates are incubated for 30 minutes at room temperature. After three times washing with PBS-Tween-20 50 μl of SuperSignal ELISA Femto Maximum sensitivity substrate solution (ThermoFisherScientific (Pierce), Bonn, Germany) are added. Following a 1 minute incubation at room temperature luminescence signals are measured with an Envision multimode reader (Perkin Elmer LAS Germany GmbH) at 700 nm. The full value used is the inhibitor-free reaction. […] The inhibitory values (IC50) are determined using either the program Symyx Assay Explorer® or Condosseo® from GeneData.

Tankyrase = test system: T2, Tankyrase; experiment: Measurement of cellular inhibition of Tankyrase (Axin2 level in DLD1 cells, Luminex based assay); assay type: cell-based; settings: read-out: EC50 [M] TNKS cellular assay; DLD1 cells, Axin2 increase, 24 hours
T2 construct: TNKS cellular assay; other: DLD1 cells, Axin2 increase, 24 hours
Experimental: Measurement of Cellular Inhibition of Tankyrase
Cells of the colon carcinoma cell line DLD1 are plated in 96 well plates with 1.5×10^4 cells per well. Next day, cells are treated with a serial dilution of test compound in seven steps as triplicates with a final DMSO concentration of 0.3%. […] The amount of isolated Axin2 protein is determined in a Luminex^200 machine (Luminex Corporation) according to the manufacturer's instruction by counting 100 events per well. […] As controls cells are treated with solvent alone (neutral control) and with a Tankyrase reference inhibitor IWR-2 (3E-06 M) which refers as control for maximum increase of Axin2. For analysis, the obtained data are normalized against the untreated solvent control and fitted for determination of the EC50 values using the Assay Explorer software (Accelrys).

PARP-1 = target: T3, PARP-1 (Homo sapiens, UniProt P09874); experiment: PARP-1 autoparsylation assay (HTRF); assay type: biochemical; settings: His-tagged Parp-1, autoparsylation
T3 construct: purchased Enzo Life Sciences GmbH, Lörrach, Germany

TNKS2 = target: T4, TNKS2 (Homo sapiens, UniProt Q9H2K2); experiment: TNKS2 activity ELISA (autoparsylation assay); assay type: biochemical
T4 construct: GST-tagged Tnks-2 (873-1166 aa, prepared in-house); made in house
Experimental: as §1, §2, §3, §4

[1] = GST-tagged Tnks-1, read-out: IC50 [M] TNKS1 ELISA
[2] = GST-tagged Tnks-2, read-out: IC50 [M] TNKS2 ELISA

T4 sequence (Q9H2K2 873-1166): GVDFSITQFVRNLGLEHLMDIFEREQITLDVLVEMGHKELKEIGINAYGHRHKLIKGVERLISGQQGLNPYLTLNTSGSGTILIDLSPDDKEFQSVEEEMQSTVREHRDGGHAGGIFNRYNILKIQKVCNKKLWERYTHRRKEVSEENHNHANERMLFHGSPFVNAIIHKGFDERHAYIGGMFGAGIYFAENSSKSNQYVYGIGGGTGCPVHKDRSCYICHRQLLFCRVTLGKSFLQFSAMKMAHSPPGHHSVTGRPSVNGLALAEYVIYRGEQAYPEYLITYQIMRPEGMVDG
T3 sequence (P09874 whole entry): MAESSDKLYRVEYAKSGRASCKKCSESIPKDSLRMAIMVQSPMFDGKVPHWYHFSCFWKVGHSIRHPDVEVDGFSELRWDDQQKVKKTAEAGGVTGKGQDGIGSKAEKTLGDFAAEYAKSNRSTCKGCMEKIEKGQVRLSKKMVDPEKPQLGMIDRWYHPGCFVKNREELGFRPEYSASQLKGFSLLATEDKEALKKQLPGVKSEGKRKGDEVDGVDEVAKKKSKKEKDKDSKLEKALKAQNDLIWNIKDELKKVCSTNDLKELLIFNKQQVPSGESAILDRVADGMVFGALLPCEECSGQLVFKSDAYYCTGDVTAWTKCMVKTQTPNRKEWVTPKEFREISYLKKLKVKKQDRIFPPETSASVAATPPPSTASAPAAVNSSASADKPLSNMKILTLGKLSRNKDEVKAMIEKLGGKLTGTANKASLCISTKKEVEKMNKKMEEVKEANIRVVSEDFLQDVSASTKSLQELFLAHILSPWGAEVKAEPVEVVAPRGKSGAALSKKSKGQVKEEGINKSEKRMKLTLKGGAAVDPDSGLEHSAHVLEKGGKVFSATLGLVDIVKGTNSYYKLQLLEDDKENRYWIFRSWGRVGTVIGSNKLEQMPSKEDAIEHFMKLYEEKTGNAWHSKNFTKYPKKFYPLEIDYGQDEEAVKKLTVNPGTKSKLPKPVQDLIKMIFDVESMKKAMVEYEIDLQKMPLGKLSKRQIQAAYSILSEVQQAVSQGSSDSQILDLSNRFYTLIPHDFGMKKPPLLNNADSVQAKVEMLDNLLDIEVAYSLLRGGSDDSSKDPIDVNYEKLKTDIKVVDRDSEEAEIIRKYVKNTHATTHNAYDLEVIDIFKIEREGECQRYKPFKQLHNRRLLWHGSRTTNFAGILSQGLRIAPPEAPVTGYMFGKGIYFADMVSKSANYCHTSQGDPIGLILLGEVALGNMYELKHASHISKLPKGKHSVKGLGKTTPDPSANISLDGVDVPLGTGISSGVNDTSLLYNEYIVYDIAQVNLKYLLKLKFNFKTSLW
T1 sequence (O95271 1023-1327): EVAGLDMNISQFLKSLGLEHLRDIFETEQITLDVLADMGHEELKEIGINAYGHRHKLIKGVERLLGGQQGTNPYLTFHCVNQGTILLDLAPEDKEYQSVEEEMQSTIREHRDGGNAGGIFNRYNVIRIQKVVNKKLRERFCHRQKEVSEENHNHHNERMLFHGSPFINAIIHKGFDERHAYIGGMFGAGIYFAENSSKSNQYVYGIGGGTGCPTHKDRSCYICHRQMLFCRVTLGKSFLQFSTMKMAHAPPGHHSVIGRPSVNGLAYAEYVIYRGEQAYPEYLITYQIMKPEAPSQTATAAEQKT

Structure (SMILES): Nc1ncc(C2CCN(C(=O)CCCc3nc4ccc(F)cc4c(=O)[nH]3)CC2)cc1-c1ncccn1 [Compound A32, 2-[4-(6-Amino-5-pyrimidin-2-yl-3′,4′,5′,6′-tetrahydro-2′H-[3,4]bipyridinyl-1′-yl)-4-oxo-butyl]-6-fluoro-3H-quinazolin-4-one]
- IC50 (TNKS1; [1]): 3.2e-10 M
- EC50 (Tankyrase): 2.3e-09 M
- IC50 (PARP-1): 600 nM
- IC50 (TNKS2; [2]): 3.4e-10 M

Structure (SMILES): O=C(c1ccc(-c2cnn(CCN3CCCC3)c2)cc1)C1CCN(C(=O)CCCc2nc3ccccc3c(=O)[nH]2)CC1 [Compound A12, 2-[4-oxo-4-(4-{4-[1-(2-pyrrolidin-1-yl-ethyl)-1H-pyrazol-4-yl]-benzoyl}-piperidin-1-yl)-butyl]-3H-quinazolin-4-one]
- IC50 (TNKS1; [1]): 2.5e-10 M
- EC50 (Tankyrase): 6.8e-09 M
- IC50 (PARP-1): 650 nM
- IC50 (TNKS2; [2]): 3.5e-10 M

Structure (SMILES): O=C(c1ccc(F)cc1)C1CCN(C(=O)CCCc2nc3c(F)cccc3c(=O)[nH]2)CC1 [Compound A28, 8-Fluoro-2-{4-[4-(4-fluoro-benzoyl)-piperidin-1-yl]-4-oxo-butyl}-3H-quinazolin-4-one]
- IC50 (TNKS1; [1]): 8.7e-10 M
- EC50 (Tankyrase): 4.2e-08 M
- IC50 (PARP-1): 3300 nM
- IC50 (TNKS2; [2]): 6.2e-10 M

Structure (SMILES): COc1ccc(C(=O)C2CCN(C(=O)CCCc3nc4ccccc4c(=O)[nH]3)CC2)cn1 [Compound A16, 2-{4-[4-(6-Methoxy-pyridine-3-carbonyl)-piperidin-1-yl]-4-oxo-butyl}-3H-quinazolin-4-one]
- IC50 (TNKS1; [1]): 1.1e-09 M
- EC50 (Tankyrase): 1e-08 M
- IC50 (PARP-1): 2700 nM
- IC50 (TNKS2; [2]): 7.5e-10 M

Structure (SMILES): COc1ccc(C(=O)C2CCN(C(=O)CCCc3nc4c(F)cccc4c(=O)[nH]3)CC2)cc1 [Compound A25, 8-Fluoro-2-{4-[4-(4-methoxy-benzoyl)-piperidin-1-yl]-4-oxo-butyl}-3H-quinazolin-4-one]
- IC50 (TNKS1; [1]): 2.8e-10 M
- EC50 (Tankyrase): 2.1e-09 M
- IC50 (PARP-1): 2100 nM
- IC50 (TNKS2; [2]): 2e-10 M

Structure (SMILES): N#Cc1cc(C2CCN(C(=O)CCCc3nc4ccc(F)cc4c(=O)[nH]3)CC2)cnc1N [Compound A31, 6-Amino-1′-[4-(6-fluoro-4-oxo-3,4-dihydro-quinazolin-2-yl)-butyryl]-1′,2′,3′,4′,5′,6′-hexahydro-[3,4]bipyridinyl-5-carbonitrile]
- IC50 (TNKS1; [1]): 2.1e-09 M
- EC50 (Tankyrase): 2.9e-09 M
- IC50 (PARP-1): 1400 nM
- IC50 (TNKS2; [2]): 9.5e-10 M

Structure (SMILES): O=C(c1ccc(F)cc1)C1CCN(C(=O)CCCc2nc3ccccc3c(=O)[nH]2)CC1 [Compound A18, 2-{4-[4-(4-Fluoro-benzoyl)-piperidin-1-yl]-4-oxo-butyl}-3H-quinazolin-4-one]
- IC50 (TNKS1; [1]): 7e-10 M
- EC50 (Tankyrase): 2.1e-08 M
- IC50 (PARP-1): 2100 nM
- IC50 (TNKS2; [2]): 6.1e-10 M

Structure (SMILES): O=C(c1ccccc1)C1CCN(C(=O)CCCc2nc3c(F)cc(F)cc3c(=O)[nH]2)CC1 [Compound A6, 2-[4-(4-benzoyl-piperidin-1-yl)-4-oxo-butyl]-6,8-difluoro-3H-quinazolin-4-one]
- IC50 (TNKS1; [1]): 3.8e-10 M
- IC50 (PARP-1): 650 nM
- IC50 (TNKS2; [2]): 9.3e-10 M

Structure (SMILES): COc1ccc(C(=O)C2CCN(C(=O)CCCc3nc4ccc(F)cc4c(=O)[nH]3)CC2)cc1 [Compound A19, 6-Fluoro-2-{4-[4-(4-methoxy-benzoyl)-piperidin-1-yl]-4-oxo-butyl}-3H-quinazolin-4-one]
- IC50 (TNKS1; [1]): 3.1e-10 M
- EC50 (Tankyrase): 8.3e-10 M
- IC50 (PARP-1): 710 nM
- IC50 (TNKS2; [2]): 3.2e-10 M

Structure (SMILES): Nc1ncc(C2CCN(C(=O)CCCc3nc4ccccc4c(=O)[nH]3)CC2)cc1-c1ncccn1 [Compound A30, 2-[4-(6-Amino-5-pyrimidin-2-yl-3′,4′,5′,6-tetrahydro-2′H-[3,4]bipyridinyl-1′-yl)-4-oxo-butyl]-3H-quinazolin-4-one]
- IC50 (TNKS1): 4.1e-10 M
- EC50 (Tankyrase): 1.2e-09 M
- IC50 (PARP-1): 670 nM
- IC50 (TNKS2): 3e-10 M

Structure (SMILES): COc1ccc(C(=O)C2CCN(C(=O)CCCc3nc4ccccc4c(=O)[nH]3)CC2)cc1F [Compound A8, 2-{4-[4-(3-fluoro-4-methoxy-benzoyl)-piperidin-1-yl]-4-oxo-butyl}-3H-quinazolin-4-one]
- IC50 (TNKS1; [1]): 8.5e-11 M
- EC50 (Tankyrase): 3.4e-09 M
- IC50 (PARP-1): 680 nM
- IC50 (TNKS2; [2]): 1.5e-10 M

Structure (SMILES): COc1ccc(C(=O)C2CCN(C(=O)CCCc3nc4ccc(F)cc4c(=O)[nH]3)CC2)cn1 [Compound A21, 6-Fluoro-2-{4-[4-(6-methoxy-pyridine-3-carbonyl)-piperidin-1-yl]-4-oxo-butyl}-3H-quinazolin-4-one]
- IC50 (TNKS1; [1]): 7.5e-10 M
- EC50 (Tankyrase): 7.8e-09 M
- IC50 (PARP-1): 550 nM
- IC50 (TNKS2; [2]): 6.8e-10 M

Structure (SMILES): COc1ccc(C(=O)C2CCN(C(=O)CCCc3nc4c(F)cc(F)cc4c(=O)[nH]3)CC2)cc1 [Compound A5, 6,8-difluoro-2-{4-[4-(4-methoxy-benzoyl)-piperidin-1-yl]-4-oxo-butyl}-3H-quinazolin-4-one]
- IC50 (TNKS1; [1]): 8.7e-11 M
- EC50 (Tankyrase): 2.6e-09 M
- IC50 (PARP-1): 780 nM
- IC50 (TNKS2; [2]): 1.6e-10 M

Structure (SMILES): Cc1cc(F)cc2c(=O)[nH]c(CCCC(=O)N3CCC(C(=O)c4ccccc4)CC3)nc12 [Compound A3, 2-[4-(4-benzoyl-piperidin-1-yl)-4-oxo-butyl]-6-fluoro-8-methyl-3H-quinazolin-4-one]
- IC50 (TNKS1; [1]): 2.2e-10 M
- EC50 (Tankyrase): 3.4e-09 M
- IC50 (PARP-1): 29 nM
- IC50 (TNKS2; [2]): 1.3e-10 M

Structure (SMILES): N#Cc1ccc(OC2CCN(C(=O)CCCc3nc4ccc(F)cc4c(=O)[nH]3)CC2)cc1 [Compound A22, 4-{1-[4-(6-Fluoro-4-oxo-3,4-dihydro-quinazolin-2-yl)-butyryl]-piperidin-4-yloxy}-benzonitrile]
- IC50 (TNKS1; [1]): 1.3e-07 M
- EC50 (Tankyrase): 5.6e-07 M
- IC50 (PARP-1): 640 nM
- IC50 (TNKS2; [2]): 7.6e-08 M

Structure (SMILES): COc1ccc(C(=O)C2CCN(C(=O)CCCc3nc4ccc(F)cc4c(=O)[nH]3)CC2)cc1F [Compound A20, 6-Fluoro-2-{4-[4-(3-fluoro-4-methoxy-benzoyl)-piperidin-1-yl]-4-oxo-butyl}-3H-quinazolin-4-one]
- IC50 (TNKS1; [1]): 2.5e-10 M
- EC50 (Tankyrase): 3.4e-09 M
- IC50 (PARP-1): 960 nM
- IC50 (TNKS2; [2]): 2.5e-10 M

Structure (SMILES): Cc1cccc(C(=O)C2CCN(C(=O)CCCc3nc4ccccc4c(=O)[nH]3)CC2)c1 [Compound A7, 2-{4-[4-(3-methyl-benzoyl)-piperidin-1-yl]-4-oxo-butyl}-3H-quinazolin-4-one]
- IC50 (TNKS1): 2.2e-10 M
- EC50 (Tankyrase): 2e-08 M
- IC50 (PARP-1): 810 nM
- IC50 (TNKS2): 1.9e-10 M

Structure (SMILES): CC(C)(O)c1ccc(C(=O)C2CCN(C(=O)CCCc3nc4ccc(F)cc4c(=O)[nH]3)CC2)cc1 [Compound A39, 6-Fluoro-2-(4-{4-[4-(1-hydroxy-1-methyl-ethyl)-benzoyl]-piperidin-1-yl}-4-oxo-butyl)-3H-quinazolin-4-one]
- IC50 (TNKS1; [1]): 9.6e-09 M
- IC50 (PARP-1): 270 nM

Structure (SMILES): Cn1ccnc1C(=O)C1CCN(C(=O)CCCc2nc3ccccc3c(=O)[nH]2)CC1 [Compound A40, 2-{4-[4-(1-methyl-1H-imidazole-2-carbonyl)-piperidin-1-yl]-4-oxo-butyl}-3H-quinazolin-4-one]
- IC50 (TNKS1): 8.2e-08 M
- IC50 (PARP-1): 3200 nM
- IC50 (TNKS2; [2]): 6.1e-08 M

Structure (SMILES): CC(C)(O)c1ccc(C(=O)C2CCN(C(=O)CCCc3nc4ccccc4c(=O)[nH]3)CC2)cc1 [Compound A38, 2-(4-{4-[4-(1-Hydroxy-1-methyl-ethyl)-benzoyl]-piperidin-1-yl}-4-oxo-butyl)-3H-quinazolin-4-one]
- IC50 (TNKS1; [1]): 2.2e-08 M
- IC50 (PARP-1): 430 nM
- IC50 (TNKS2; [2]): 8.4e-09 M

Structure (SMILES): CC(C)(O)c1ccc(C(=O)C2CCN(C(=O)CCCc3nc4c(F)cccc4c(=O)[nH]3)CC2)cc1 [Compound A37, 8-Fluoro-2-(4-{4-[4-(1-hydroxy-1-methyl-ethyl)-benzoyl]-piperidin-1-yl}-4-oxo-butyl)-3H-quinazolin-4-one]
- IC50 (TNKS1; [1]): 1.1e-08 M
- IC50 (PARP-1): 4300 nM

Structure (SMILES): O=C(c1ccc(F)cc1)C1CCN(C(=O)CCCc2nc3ccc(F)cc3c(=O)[nH]2)CC1 [Compound A23, 6-Fluoro-2-{4-[4-(4-fluoro-benzoyl)-piperidin-1-yl]-4-oxo-butyl}-3H-quinazolin-4-one]
- IC50 (TNKS1; [1]): 8.4e-10 M
- IC50 (PARP-1): 650 nM
- IC50 (TNKS2; [2]): 5.9e-10 M
